Laboratory results taken from publication PMC7915724 (2021).

What was measured:
Test in all cases: SPR
[1] = test system: biotin-Py24 (VEGF i-motif) (DNA, i motif) GACCCCGCCCCCGGCCCGCCCCGG; conditions: 100 mM KCl; 20 mM MES pH 5.5, 0.05% Tween-20, 25 °C; tested up to 50 μM
[2] = test system: biotin-Py24 (VEGF i-motif) (DNA, i motif) GACCCCGCCCCCGGCCCGCCCCGG; conditions: 100 mM KCl, 20 mM MES pH 5.5, 0.05% Tween-20, 25 °C
[3] = test system: biotin-Pu24 (VEGF G-quadruplex) (DNA, G4) CCGGGGCGGGCCGGGGGCGGGGTC; conditions: 100 mM KCl; 20 mM Tris-HCl pH 7.4, 25 °C; tested up to 50 μM
[4] = test system: biotin-Hairpin (duplex DNA) (DNA, hairpin, HEG (hexaethylene glycol) linker between 10 and 11) TATAGCTATATATAGCTATA; conditions: 100 mM KCl; 20 mM Tris-HCl pH 7.4, 25 °C; tested up to 50 μM

SMILES | KD [1] | KD ([2]; tested up to 50 μM) | KD [3] | KD [4] | KD [2]
CC(=O)OC[C@H]1O[C@@H](n2cc(CNC(=O)[C@]34CCC(C)(C)C[C@H]3C3=CC[C@@H]5[C@@]6(C)CC[C@H](O)C(C)(C)[C@@H]6CC[C@@]5(C)[C@]3(C)CC4)nn2)[C@H](OC(C)=O)[C@@H](OC(C)=O)[C@@H]1OC(C)=O | > 50 µM |  |  |  | 
CC1(C)CC[C@]2(C(=O)N3CCC(N4CCCCC4)CC3)CC[C@]3(C)C(=CC[C@@H]4[C@@]5(C)CC[C@H](O)C(C)(C)[C@@H]5CC[C@]43C)[C@@H]2C1 |  | > 50 µM | > 50 µM | > 50 µM | 
CC1(C)CC[C@]2(C(=O)N3CCN(C(=O)Cn4cnc5[nH]c(=O)[nH]c(=O)c54)CC3)CC[C@]3(C)C(=CC[C@@H]4[C@@]5(C)CC[C@H](O)C(C)(C)[C@@H]5CC[C@]43C)[C@@H]2C1 | > 50 µM |  | > 50 µM | > 50 µM | 
CC1(C)CC[C@]2(C(=O)N3CCN(c4ccc(F)cc4F)CC3)CC[C@]3(C)C(=CC[C@@H]4[C@@]5(C)CC[C@H](O)C(C)(C)[C@@H]5CC[C@]43C)[C@@H]2C1 | > 50 µM |  | > 50 µM | > 50 µM | 
CC1(C)CC[C@]2(C(=O)N3CCN(c4cccc(C(F)(F)F)c4)CC3)CC[C@]3(C)C(=CC[C@@H]4[C@@]5(C)CC[C@H](O)C(C)(C)[C@@H]5CC[C@]43C)[C@@H]2C1 | > 50 µM |  | > 50 µM | > 50 µM | 
CC1(C)CC[C@]2(C(=O)N3CCN(c4ccccn4)CC3)CC[C@]3(C)C(=CC[C@@H]4[C@@]5(C)CC[C@H](O)C(C)(C)[C@@H]5CC[C@]43C)[C@@H]2C1 | > 50 µM |  | > 50 µM | > 50 µM | 
CC1(C)CC[C@]2(C(=O)N3CCN(c4ncccn4)CC3)CC[C@]3(C)C(=CC[C@@H]4[C@@]5(C)CC[C@H](O)C(C)(C)[C@@H]5CC[C@]43C)[C@@H]2C1 | > 50 µM |  | > 50 µM | > 50 µM | 
CC1(C)CC[C@]2(C(=O)NCCNC(=O)c3ccccc3Nc3ccccc3)CC[C@]3(C)C(=CC[C@@H]4[C@@]5(C)CC[C@H](O)C(C)(C)[C@@H]5CC[C@]43C)[C@@H]2C1 | > 50 µM |  | > 50 µM | > 50 µM | 
CC1(C)CC[C@]2(C(=O)NCCNS(=O)(=O)N3CCOCC3)CC[C@]3(C)C(=CC[C@@H]4[C@@]5(C)CC[C@H](O)C(C)(C)[C@@H]5CC[C@]43C)[C@@H]2C1 |  |  | > 50 µM | > 50 µM | 13.8 µM
CC1(C)CC[C@]2(C(=O)NCCc3c[nH]cn3)CC[C@]3(C)C(=CC[C@@H]4[C@@]5(C)CC[C@H](O)C(C)(C)[C@@H]5CC[C@]43C)[C@@H]2C1 |  |  | > 50 µM | > 50 µM | 12.1 µM
CC1(C)CC[C@]2(C(=O)NCc3cn(-c4ncccn4)nn3)CC[C@]3(C)C(=CC[C@@H]4[C@@]5(C)CC[C@H](O)C(C)(C)[C@@H]5CC[C@]43C)[C@@H]2C1 |  |  | > 50 µM | > 50 µM | 12.3 µM
CC1(C)CC[C@]2(C(=O)NCc3cn(CCC#N)nn3)CC[C@]3(C)C(=CC[C@@H]4[C@@]5(C)CC[C@H](O)C(C)(C)[C@@H]5CC[C@]43C)[C@@H]2C1 |  |  | > 50 µM | > 50 µM | 19.3 µM
CC1(C)CC[C@]2(C(=O)NCc3cn(CCC(=O)O)nn3)CC[C@]3(C)C(=CC[C@@H]4[C@@]5(C)CC[C@H](O)C(C)(C)[C@@H]5CC[C@]43C)[C@@H]2C1 |  |  | > 50 µM | > 50 µM | 13.0 µM
CC1(C)CC[C@]2(C(=O)NCc3cn(CCCN4CCCC4)nn3)CC[C@]3(C)C(=CC[C@@H]4[C@@]5(C)CC[C@H](O)C(C)(C)[C@@H]5CC[C@]43C)[C@@H]2C1 | > 50 µM |  |  |  | 
CC1(C)CC[C@]2(C(=O)NCc3cn(CCCN4CCOCC4)nn3)CC[C@]3(C)C(=CC[C@@H]4[C@@]5(C)CC[C@H](O)C(C)(C)[C@@H]5CC[C@]43C)[C@@H]2C1 | > 50 µM |  |  |  | 
CC1(C)CC[C@]2(C(=O)NCc3cn(CCCc4ccccc4)nn3)CC[C@]3(C)C(=CC[C@@H]4[C@@]5(C)CC[C@H](O)C(C)(C)[C@@H]5CC[C@]43C)[C@@H]2C1 | > 50 µM |  | > 50 µM | > 50 µM | 
CC1(C)CC[C@]2(C(=O)NCc3cn(CCN4CCCC4)nn3)CC[C@]3(C)C(=CC[C@@H]4[C@@]5(C)CC[C@H](O)C(C)(C)[C@@H]5CC[C@]43C)[C@@H]2C1 | > 50 µM |  |  |  | 
CC1(C)CC[C@]2(C(=O)NCc3cn(CCN4CCOCC4)nn3)CC[C@]3(C)C(=CC[C@@H]4[C@@]5(C)CC[C@H](O)C(C)(C)[C@@H]5CC[C@]43C)[C@@H]2C1 | > 50 µM |  |  |  | 
CC1(C)CC[C@]2(C(=O)NCc3cn(Cc4ccc(C(F)(F)F)cc4)nn3)CC[C@]3(C)C(=CC[C@@H]4[C@@]5(C)CC[C@H](O)C(C)(C)[C@@H]5CC[C@]43C)[C@@H]2C1 | > 50 µM |  |  |  | 
CC1(C)CC[C@]2(C(=O)NCc3cn(Cc4ccccc4)nn3)CC[C@]3(C)C(=CC[C@@H]4[C@@]5(C)CC[C@H](O)C(C)(C)[C@@H]5CC[C@]43C)[C@@H]2C1 | > 50 µM |  | > 50 µM | > 50 µM | 

SMILES | KD [1] | KD ([2]; tested up to 50 μM) | KD [3] | KD [4] | KD [2]
CC1(C)CC[C@]2(C(=O)NCc3cn(Cc4nc5ccccc5[nH]4)nn3)CC[C@]3(C)C(=CC[C@@H]4[C@@]5(C)CC[C@H](O)C(C)(C)[C@@H]5CC[C@]43C)[C@@H]2C1 |  |  | > 50 µM | > 50 µM | 10.6 µM
CC1(C)CC[C@]2(C(=O)NCc3cn([C@@H]4O[C@H](CO)[C@@H](O)[C@H](O)[C@H]4O)nn3)CC[C@]3(C)C(=CC[C@@H]4[C@@]5(C)CC[C@H](O)C(C)(C)[C@@H]5CC[C@]43C)[C@@H]2C1 |  |  | > 50 µM | > 50 µM | 12.0 µM
CCOC(=O)Cn1cc(CNC(=O)[C@]23CCC(C)(C)C[C@H]2C2=CC[C@@H]4[C@@]5(C)CC[C@H](O)C(C)(C)[C@@H]5CC[C@@]4(C)[C@]2(C)CC3)nn1 |  | > 50 µM | > 50 µM | > 50 µM | 
CN(C)CCn1cc(CNC(=O)[C@]23CCC(C)(C)C[C@H]2C2=CC[C@@H]4[C@@]5(C)CC[C@H](O)C(C)(C)[C@@H]5CC[C@@]4(C)[C@]2(C)CC3)nn1 | > 50 µM |  | > 50 µM |  | 
COC(=O)[C@]12CCC(C)(C)C[C@H]1C1=CC[C@@H]3[C@@]4(C)C=C(C(=O)NCCCN5CCCC5)C(=O)C(C)(C)[C@@H]4CC[C@@]3(C)[C@]1(C)CC2 | > 50 µM |  |  |  | 
COC(=O)[C@]12CCC(C)(C)C[C@H]1C1=CC[C@@H]3[C@@]4(C)C=C(C(=O)NCCCc5ccccc5)C(=O)C(C)(C)[C@@H]4CC[C@@]3(C)[C@]1(C)CC2 | > 50 µM |  |  |  | 
COC(=O)[C@]12CCC(C)(C)C[C@H]1C1=CC[C@@H]3[C@@]4(C)C=C(C(=O)NCCc5ccc(C(F)(F)F)cc5)C(=O)C(C)(C)[C@@H]4CC[C@@]3(C)[C@]1(C)CC2 | > 50 µM |  |  |  | 
COC(=O)[C@]12CCC(C)(C)C[C@H]1C1=CC[C@@H]3[C@@]4(C)C=C(C(=O)O)C(=O)C(C)(C)[C@@H]4CC[C@@]3(C)[C@]1(C)CC2 |  | > 50 µM | > 50 µM | > 50 µM | 
COC(=O)[C@]12CCC(C)(C)C[C@H]1[C@H]1C(=O)C[C@@H]3[C@@](C)(CCC(=O)N4CCN(c5ccc(F)cc5F)CC4)[C@H](C(C)(C)O)CC[C@@]3(C)[C@]1(C)CC2 | > 50 µM |  |  |  | 
COC(=O)[C@]12CCC(C)(C)C[C@H]1[C@H]1C(=O)C[C@@H]3[C@@](C)(CCC(=O)NCCCN(C)C)[C@H](C(C)(C)O)CC[C@@]3(C)[C@]1(C)CC2 |  | > 50 µM | > 50 µM | > 50 µM | 
COC(=O)[C@]12CCC(C)(C)C[C@H]1[C@H]1C(=O)C[C@@H]3[C@@](C)(CCC(=O)NCCCN4CCOCC4)[C@H](C(C)(C)O)CC[C@@]3(C)[C@]1(C)CC2 |  |  | > 50 µM | > 50 µM | 31.3 µM
COC(=O)[C@]12CCC(C)(C)C[C@H]1[C@H]1C(=O)C[C@@H]3[C@@](C)(CCC(=O)NCCCn4ccnc4)[C@H](C(C)(C)O)CC[C@@]3(C)[C@]1(C)CC2 |  |  | > 50 µM | > 50 µM | 21.1 µM
COC(=O)[C@]12CCC(C)(C)C[C@H]1[C@H]1C(=O)C[C@@H]3[C@@](C)(CCC(=O)NCCc4cccs4)[C@H](C(C)(C)O)CC[C@@]3(C)[C@]1(C)CC2 | > 50 µM |  |  |  | 
COC(=O)[C@]12CCC(C)(C)C[C@H]1[C@H]1C(=O)C[C@@H]3[C@@](C)(CCC(=O)Nc4ccc(F)cc4)[C@H](C(C)(C)O)CC[C@@]3(C)[C@]1(C)CC2 | > 50 µM |  |  |  | 
COC(=O)[C@]12CCC(C)(C)C[C@H]1[C@H]1C(=O)C[C@@H]3[C@@](C)(CCC(=O)Nc4ccc(OC(F)(F)F)cc4)[C@H](C(C)(C)O)CC[C@@]3(C)[C@]1(C)CC2 | > 50 µM |  |  |  | 
COC(=O)[C@]12CCC(C)(C)C[C@H]1[C@H]1C(=O)C[C@@H]3[C@@](C)(CCC(=O)Nc4ccc(OC)cc4)[C@H](C(C)(C)O)CC[C@@]3(C)[C@]1(C)CC2 | > 50 µM |  |  |  | 
COc1ccc(C(=O)NCCNC(=O)[C@]23CCC(C)(C)C[C@H]2C2=CC[C@@H]4[C@@]5(C)CC[C@H](O)C(C)(C)[C@@H]5CC[C@@]4(C)[C@]2(C)CC3)c(OC)c1 |  | > 50 µM | > 50 µM | > 50 µM | 
COc1ccccc1N1CCN(C(=O)[C@]23CCC(C)(C)C[C@H]2C2=CC[C@@H]4[C@@]5(C)CC[C@H](O)C(C)(C)[C@@H]5CC[C@@]4(C)[C@]2(C)CC3)CC1 | > 50 µM |  | > 50 µM | > 50 µM | 
Cc1cn(CC(=O)N2CCN(C(=O)[C@]34CCC(C)(C)C[C@H]3C3=CC[C@@H]5[C@@]6(C)CC[C@H](O)C(C)(C)[C@@H]6CC[C@@]5(C)[C@]3(C)CC4)CC2)c(=O)[nH]c1=O | > 50 µM |  | > 50 µM | > 50 µM | 
